In patent US8343536B2, “Biofilm-inhibiting medical products” (Cook Biotech Incorporated, priority 2007, dated 2013):

Columns and labels:
Assay type in all cases: cell-based
[1] = system: E. coli (ATCC #25922); test: Zone-of-inhibition, ranked, bismuth thiol coated SIS discs (Example 1); conditions: 24 hours
Procedure: (§1) Seven bismuth thiol compounds (50 mg each) were obtained from Microbion, Inc. (Bozeman, Mont.). These compounds included 2 preparations of bismuth-1,2-ethanedithiol (BisEDT) (Molar ratio 1:1.5), 2 preparations of bismuth-2,3-dimercaptopropanol (BisBAL) (1:1 and 1:1.5), bismuth dithioethylhritol (BisERY) (1:1.5), bismuth-3,4-dimercatotoluene (BisTOL) (1:1.5) and bismuth butanedithiol (BisBDT) (1:1.5). Purified small intestinal submucosa (SIS) (Cook Biotech Incorporated, West Lafayette, Ind.) was made into wetted 4-layer constructs which were laminated together by lyophilization and subsequently cut into 15 mm discs (˜1.76 cm^2) using a disc punch. Bismuth thiols were resuspended in dimethyl sulfoxide (DMSO) and diluted to appropriate concentrations for coating. Discs were coated with the bismuth thiol solutions at three final concentrations using 17.6 μl of the appropriate solution per disc for a final concentration of 1, 10, or 100 μg/cm^2. The discs were subsequently placed in a lyophilizer overnight to remove the DMSO solvent. Control discs were prepared using 17.6 μl of DMSO without a bismuth thiol preparation. 3 bacteria were used for this experiment: S. aureus (ATCC #25983), P. aeruginosa (ATCC #27853), and E. coli (ATCC #25922). Bacteria was grown in Tryptic Soy Broth for 16-24 hours before placing a lawn on Tryptic Soy Agar in 100 mm Petri dishes.
(§2) Sixty six samples were tested in total (7 bismuth thiol preparations 3 doses=21+1 control=22×3 bacteria=66). A lawn of one of the three bacteria investigated was swabbed onto the Tryptic Soy Agar. The bismuth thiol coated disc was placed approximately in the center of the plate and rehydrated with ˜50 μl of sterile saline. Plates were incubated inverted for 24 hours at which time pictures were taken with a digital camera. Zones-of-inhibition were categorized by the approximate distance of bacterial growth inhibition from the disc edge. The effectiveness was ranked as follows: (−) for no growth retardation, (+) for growth retardation at <1 mm from disc edge, (++) for growth retardation 1-3 mm from disc edge, and (+++) for growth retardation greater than 3 mm from disc edge. Results are shown below in Tables 2-4.

[2] = system: P. aeruginosa (ATCC #27853); test: as above; conditions: 24 hours
Procedure: as §1, §2

[3] = system: S. aureus (ATCC #25983); test: as above; conditions: 24 hours
Procedure: as §1, §2

[4] = system: E. coli (ATCC #25922); test: Zone-of-inhibition measured by image analysis, coated SIS discs (Example 2); conditions: 10 μg/cm^2 on SIS disc, 24 hours, n=3
Procedure: (§3) BisEDT (Molar ratio 1:1.5), BisBAL (1:1.5), and BisERY (1:1.5) (50 mg each) were obtained from Microbion, Inc. Small intestinal submucosa (SIS) was obtained and processed into 4-layer lyophilized sheets as described in Example 1. The sheets were subsequently cut into 15 mm discs (˜1.76 cm^2) using a disc punch. Bismuth thiols were resuspended in dimethyl sulfoxide (DMSO) and diluted to 0.35 μg/μl for coating. Discs were coated with the bismuth thiol solutions 50 μl of the appropriate solution per disc for a final concentration 10 μg/cm^2 (0.35 μg/μl*50 μl=17.5 μg/1.76 cm^2=10 μg/cm^2). The discs were subsequently placed in a lyophilizer overnight to remove the DMSO solvent. Control discs were prepared using 50 μl of DMSO without a bismuth thiol preparation. 3 bacteria were used for this experiment: S. aureus (ATCC #25983), P. aeruginosa (ATCC #27853), and E. coli (ATCC #25922). Bacteria was grown in Tryptic Soy Broth for 16-24 hours before placing a lawn on Tryptic Soy Agar in 100 mm Petri dishes.
(§4) Thirty samples were tested in total (3 bismuth thiol preparations @ n=3→9+1 control=10×3 bacteria=30). A lawn of one of the three bacteria investigated was swabbed onto the Tryptic Soy Agar. The bismuth thiol coated disc was rehydrated for ˜5 minutes in sterile saline and placed approximately in the center of the plate. Plates were incubated inverted for 24 hours at which time pictures were taken with a digital camera. Zones-of-inhibition were measured using image analysis software (Spot RT) by determining the distance of bacterial growth inhibition from the disc edge.

[5] = system: P. aeruginosa (ATCC #27853); test: as above; conditions: 10 μg/cm^2 on SIS disc, 24 hours, n=3
Procedure: as §3, §4

[6] = system: S. aureus (ATCC #25983); test: as above; conditions: 10 μg/cm^2 on SIS disc, 24 hours, n=3
Procedure: as §3, §4

[7] = system: S. aureus (ATCC #25983); test: Zone-of-inhibition after various rehydration times of coated SIS discs (Example 3)
Procedure: BisEDT (Molar ratio 1:1.5) and BisBAL (1:1.5) (50 mg each) were obtained from Microbion, Inc. Small intestinal submucosa (SIS) was obtained and processed into 4-layer lyophilized sheets as described in Example 1. The sheets were subsequently cut into 15 mm discs (˜1.76 cm^2) using a disc punch. Bismuth thiols were resuspended in dimethyl sulfoxide (DMSO) and diluted to appropriate concentrations for coating. Discs were coated with the bismuth thiol solutions at a final concentration of 0.35 μg/μl using 50 μl of the solution per disc for a final concentration of 10 μg/cm^2. The discs were subsequently placed in a lyophilizer overnight to remove the DMSO solvent. S. aureus (ATCC #25983) was used as the bacteria for this experiment. Bacteria was grown in Tryptic Soy Broth for 16-24 hours before placing a lawn on Tryptic Soy Agar in 100 mm Petri dishes.
Thirty six samples were tested in total (2 BT*n=3→6*6 rehydration times→36). A lawn of S. aureus was swabbed onto the Tryptic Soy Agar. For the 0 rehydration time point, the bismuth thiol coated disc was placed approximately in the center of the plate and rehydrated with ˜50 μl of sterile saline. Other rehydration times were varied at 5, 10, 20, 30, or 60 minutes. For this, the samples were placed in sterile saline and a timer set for each time. At the appropriate time, samples were removed from the saline and placed approximately in the center of the plate. Plates were incubated inverted for 24 hours at which time pictures were taken with a digital camera. Zones-of-inhibition were compared visually between groups.

| Molecule | Zone-of-inhibition rank (E. coli) ([1]; 1 μg/cm^2 on SIS disc) | Zone-of-inhibition rank (E. coli) ([1]; 10 μg/cm^2 on SIS disc) | Zone-of-inhibition rank (E. coli) ([1]; 100 μg/cm^2 on SIS disc) | Zone-of-inhibition rank (P. aeruginosa) ([2]; 1 μg/cm^2 on SIS disc) | Zone-of-inhibition rank (P. aeruginosa) ([2]; 10 μg/cm^2 on SIS disc) | Zone-of-inhibition rank (P. aeruginosa) ([2]; 100 μg/cm^2 on SIS disc) | Zone-of-inhibition rank (S. aureus) ([3]; 1 μg/cm^2 on SIS disc) | Zone-of-inhibition rank (S. aureus) ([3]; 10 μg/cm^2 on SIS disc) | Zone-of-inhibition rank (S. aureus) ([3]; 100 μg/cm^2 on SIS disc) | Zone-of-inhibition, distance of bacterial growth inhibition from the disc edge [4] | Zone-of-inhibition, distance of bacterial growth inhibition from the disc edge [5] | Zone-of-inhibition, distance of bacterial growth inhibition from the disc edge [6] | Effect of rehydration time on zone-of-inhibition, visual comparison ([7]; 10 μg/cm^2, rehydration 0-60 minutes in sterile saline) | Zone-of-inhibition, visual ([7]; 10 μg/cm^2 on SIS disc, rehydration 0, 5, 10, 20, 30 or 60 minutes) |
| --- | --- | --- | --- | --- | --- | --- | --- | --- | --- | --- | --- | --- | --- | --- |
| bismuth dithioethylhritol [Bis ERY] | − | ++ ((++) for growth retardation 1-3 mm from disc edge) | +++ ((+++) for growth retardation greater than 3 mm from disc edge) | − | ++ ((++) for growth retardation 1-3 mm from disc edge) | +++ ((+++) for growth retardation greater than 3 mm from disc edge) | − | ++ ((++) for growth retardation 1-3 mm from disc edge) | +++ ((+++) for growth retardation greater than 3 mm from disc edge) |  |  |  |  |  |
| OCC(S)CS.[Bi] (stereo not shown) [BisBAL, bismuth-2,3-dimercaptopropanol] |  |  |  |  |  |  |  |  |  | 1.50 | 0.16 | 7.27 | no visual differences between the rehydration time points | significant effectiveness in creating a zone-of-inhibition |
| bismuth-1,2-ethanedithiol [Bis EDT1] | − | − | + ((+) for growth retardation at <1 mm from disc edge) | − | + ((+) for growth retardation at <1 mm from disc edge) | + ((+) for growth retardation at <1 mm from disc edge) | + ((+) for growth retardation at <1 mm from disc edge) | ++ ((++) for growth retardation 1-3 mm from disc edge) | +++ ((+++) for growth retardation greater than 3 mm from disc edge) |  |  |  |  |  |
| bismuth butanedithiol [Bis BDT] | − | ++ ((++) for growth retardation 1-3 mm from disc edge) | ++ ((++) for growth retardation 1-3 mm from disc edge) | − | + ((+) for growth retardation at <1 mm from disc edge) | ++ ((++) for growth retardation 1-3 mm from disc edge) | − | ++ ((++) for growth retardation 1-3 mm from disc edge) | +++ ((+++) for growth retardation greater than 3 mm from disc edge) |  |  |  |  |  |
| OCC(S)CS.[Bi] (stereo not shown) [Bis BAL2, bismuth-2,3-dimercaptopropanol] | − | ++ ((++) for growth retardation 1-3 mm from disc edge) | +++ ((+++) for growth retardation greater than 3 mm from disc edge) | − | + ((+) for growth retardation at <1 mm from disc edge) | +++ ((+++) for growth retardation greater than 3 mm from disc edge) | + ((+) for growth retardation at <1 mm from disc edge) | +++ ((+++) for growth retardation greater than 3 mm from disc edge) |  |  |  |  |  |  |
| bismuth-1,2-ethanedithiol [Bis EDT2] | − | + ((+) for growth retardation at <1 mm from disc edge) | + ((+) for growth retardation at <1 mm from disc edge) | − | − | ++ ((++) for growth retardation 1-3 mm from disc edge) | ++ ((++) for growth retardation 1-3 mm from disc edge) | ++ ((++) for growth retardation 1-3 mm from disc edge) | +++ ((+++) for growth retardation greater than 3 mm from disc edge) |  |  |  |  |  |
| OCC(S)CS.[Bi] (stereo not shown) [Bis BAL1, bismuth-2,3-dimercaptopropanol] | − | ++ ((++) for growth retardation 1-3 mm from disc edge) | +++ ((+++) for growth retardation greater than 3 mm from disc edge) | − | + ((+) for growth retardation at <1 mm from disc edge) | +++ ((+++) for growth retardation greater than 3 mm from disc edge) | + ((+) for growth retardation at <1 mm from disc edge) | +++ ((+++) for growth retardation greater than 3 mm from disc edge) | +++ ((+++) for growth retardation greater than 3 mm from disc edge) |  |  |  |  |  |
| bismuth-3,4-dimercatotoluene [Bis TOL] | − | − | − | − | − | − | − | + ((+) for growth retardation at <1 mm from disc edge) | + ((+) for growth retardation at <1 mm from disc edge) |  |  |  |  |  |
